Measurements: ChEMBL document CHEMBL1255200, “Exploration of piperidine-4-yl-aminopyrimidines as HIV-1 reverse transcriptase inhibitors. N-Phenyl derivatives with broad potency against resistant mutant viruses” (Bioorg Med Chem Lett, 2010)

Tests used:
[1] = test system: Human immunodeficiency virus 1; assay: Antiviral activity against HIV1 harboring reverse transcriptase V106A mutant infected in human MT4 cells assessed as reduction of virus-induced cytopathic effect by replication assay in presence of 10% FBS; format: functional, organism-based; details: Human immunodeficiency virus 1, MT4
[2] = test system: Human immunodeficiency virus 1; assay: Antiviral activity against wild type HIV1 infected in human MT4 cells assessed as reduction of virus-induced cytopathic effect by replication assay in presence of 10% FBS; format: functional, organism-based; details: Human immunodeficiency virus 1, MT4
[3] = test system: Human immunodeficiency virus 1; assay: Antiviral activity against HIV1 harboring reverse transcriptase K103N/Y181C double mutant infected in human MT4 cells assessed as reduction of virus-induced cytopathic effect by replication assay in presence of 10% FBS; format: functional, organism-based; details: Human immunodeficiency virus 1, MT4
[4] = test system: Human immunodeficiency virus 1; assay: Antiviral activity against HIV1 harboring reverse transcriptase K103N/L100I double mutant infected in human MT4 cells assessed as reduction of virus-induced cytopathic effect by replication assay in presence of 10% FBS; format: functional, organism-based; details: Human immunodeficiency virus 1, MT4
[5] = test system: Human immunodeficiency virus 1; assay: Selectivity ratio of IC50 for wild type HIV1 in presence of 40% human serum to IC50 for wild type HIV1 in presence of 10% FBS; format: functional
[6] = test system: Human immunodeficiency virus 1; assay: Antiviral activity against wild type HIV1 infected in human MT4 cells assessed as reduction of virus-induced cytopathic effect by replication assay in presence of 40% human serum; format: functional, organism-based; details: Human immunodeficiency virus 1, MT4
[7] = test system: Human immunodeficiency virus 1; assay: Antiviral activity against HIV1 harboring reverse transcriptase Y188L mutant infected in human MT4 cells assessed as reduction of virus-induced cytopathic effect by replication assay in presence of 10% FBS; format: functional, organism-based; details: Human immunodeficiency virus 1, MT4
[8] = Clearance in human liver microsomes; format: ADME, Microsome
[9] = molecular target: Human immunodeficiency virus type 1 reverse transcriptase (Human immunodeficiency virus 1, UniProt Q72547, K103N/Y181C); assay: Inhibition of HIV1 recombinant reverse transcriptase K103N/Y181C double mutant by SPA heteropolymeric assay
[10] = molecular target: Human immunodeficiency virus type 1 reverse transcriptase (Human immunodeficiency virus 1, UniProt Q72547, Y188L); assay: Inhibition of HIV1 recombinant reverse transcriptase Y188L mutant by SPA heteropolymeric assay
[11] = molecular target: Human immunodeficiency virus type 1 reverse transcriptase (Human immunodeficiency virus 1, UniProt Q72547); assay: Inhibition of HIV1 recombinant wild type reverse transcriptase by SPA heteropolymeric assay

With `Cc1cc(C#N)cc(C)c1Oc1nc(NC2CCN(Cc3ccc(S(N)(=O)=O)cc3Cl)CC2)ncc1Br` the IC50 [1] was 2 nM, the IC50 [2] was 6.1 nM and the IC50 [3] was 7.3 nM. The IC50 [4] was 5.9 nM, the “Ratio IC50” value [5] was 8 and the IC50 [6] was 48.7 nM. The IC50 [7] was 2.8 nM and the microsomal CLint [8] was 151 µL/min/mg.

For `Cc1cc(C#N)cc(C)c1Oc1ccnc(NC2CCN(c3ccc(S(N)(=O)=O)cc3)CC2)n1`, the IC50 [9] was greater than 1000 nM, the IC50 [10] was greater than 1000 nM and the IC50 [11] was 24 nM.

`Cc1cc(C#N)cc(Cl)c1Nc1ccnc(NC2CCN(c3cccc(C(N)=O)c3)CC2)n1` showed an IC50 [9] of 36 nM and an IC50 [11] of 36 nM.

With `Cc1cc(C#N)cc(C)c1Oc1nc(NC2CCN(c3cccc(C#N)c3)CC2)ncc1Br` the IC50 [9] was 352 nM and the IC50 [11] was 103 nM.

For `Cc1cc(C#N)cc(C)c1Oc1ccnc(NC2CCN(c3cccc(C#N)c3)CC2)n1`, the IC50 [9] was 772 nM and the IC50 [11] was 51 nM.

With `Cc1cc(C#N)cc(C)c1Oc1nc(NC2CCN(c3cccc(C(=O)O)c3)CC2)ncc1Br` the IC50 [9] was greater than 1000 nM and the IC50 [11] was 16 nM.

Molecule `Cc1cc(C#N)cc(C)c1Oc1ccnc(NC2CCN(c3ccc(Cl)c(C(N)=O)c3)CC2)n1` has an IC50 [9] of 192 nM and an IC50 [11] of 9 nM.

With `Cc1cc(C#N)cc(C)c1Oc1ccnc(NC2CCN(c3cc(Cl)cc(C(N)=O)c3)CC2)n1` the IC50 [9] was 265 nM and the IC50 [11] was 28 nM.

`Cc1cc(C#N)cc(C)c1Oc1nc(NC2CCN(c3cc(C(N)=O)ccc3Cl)CC2)ncc1Br` showed an IC50 [9] greater than 1000 nM, an IC50 [10] of 874 nM and an IC50 [11] of 76 nM.

In the case of `Cc1cc(C#N)cc(C)c1Oc1nc(NC2CCN(c3cccc(C(N)=O)c3)CC2)ncc1Cl`, the IC50 [9] is reported as 13 nM, the IC50 [10] is reported as 203 nM and the IC50 [11] is reported as 24 nM.

`Cc1cc(C#N)cc(C)c1Oc1nc(NC2CCN(c3cccc(C(N)=O)c3)CC2)ncc1F` gave an IC50 [9] of 14 nM, an IC50 [10] of 35 nM and an IC50 [11] of 14 nM.

For `Cc1cnc(NC2CCN(c3cccc(C(N)=O)c3)CC2)nc1Oc1c(C)cc(C#N)cc1C`, the IC50 [1] was 0.6 nM, the IC50 [9] was 15 nM and the IC50 [2] was 1.1 nM. It also gave an IC50 [11] of 12 nM, an IC50 [3] of 3.8 nM and an IC50 [4] of 6.7 nM. The “Ratio IC50” value [5] was 4, the IC50 [6] was 4.5 nM and the IC50 [7] was less than 1.2 nM. For the same molecule, the microsomal CLint [8] was 730 µL/min/mg.

`Cc1cc(C#N)cc(C)c1Oc1nc(NC2CCN(c3cccc(C(N)=O)c3)CC2)ncc1C(F)(F)F` showed an IC50 [9] of 41 nM and an IC50 [11] of 86 nM.

`Cc1cc(C#N)cc(C)c1Oc1nc(NC2CCN(c3cccc(C(N)=O)c3)CC2)ncc1N` gave an IC50 [9] of 17 nM, an IC50 [10] of 118 nM and an IC50 [11] of 19 nM.

In the case of `Cc1cc(C#N)cc(C)c1Oc1nc(NC2CCN(c3cccc(C(N)=O)c3)CC2)ncc1[N+](=O)[O-]`, the IC50 [9] is reported as 64 nM and the IC50 [11] is reported as 109 nM.

`Cc1cc(C#N)cc(Cl)c1Oc1ccnc(NC2CCN(c3cccc(C(N)=O)c3)CC2)n1` showed an IC50 [9] of 8 nM, an IC50 [2] of 0.4 nM and an IC50 [11] of 8 nM. For the same molecule, the IC50 [3] was 5.3 nM, the IC50 [4] was 42 nM and the “Ratio IC50” value [5] was 17.4. It also gave an IC50 [6] of 7.5 nM, an IC50 [7] of 1.6 nM and a microsomal CLint [8] of 274 µL/min/mg.

With `Cc1cc(C#N)cc(Cl)c1Oc1nc(NC2CCN(c3cccc(C(N)=O)c3)CC2)ncc1Br` the IC50 [9] was 28 nM, the IC50 [10] was 413 nM and the IC50 [11] was 28 nM.

With `Cc1cc(C#N)cc(Cl)c1Oc1nc(NC2CCN(c3cccc(C(N)=O)c3)CC2)ncc1Cl` the IC50 [9] was 20 nM, the IC50 [10] was 48 nM and the IC50 [11] was 20 nM.

Work on `Cc1cnc(NC2CCN(c3cccc(C(N)=O)c3)CC2)nc1Oc1c(C)cc(C#N)cc1Cl` yielded an IC50 [1] of 0.7 nM, an IC50 [9] of 6 nM and an IC50 [2] of 1.6 nM. The IC50 [11] was 6 nM, the IC50 [3] was 5.5 nM and the IC50 [4] was 7.4 nM. The “Ratio IC50” value [5] was 8.6, the IC50 [6] was 14.2 nM and the IC50 [7] was 1.4 nM. The microsomal CLint [8] was 580 µL/min/mg.

`COc1cc(C#N)cc(C)c1Oc1ccnc(NC2CCN(c3cccc(C(N)=O)c3)CC2)n1` gave an IC50 [9] of 18 nM, an IC50 [10] of 64 nM and an IC50 [11] of 18 nM.

In the case of `COc1cc(C#N)cc(C)c1Oc1nc(NC2CCN(c3cccc(C(N)=O)c3)CC2)ncc1Br`, the IC50 [9] is reported as 56 nM and the IC50 [11] is reported as 56 nM.

`COc1cc(C#N)cc(C)c1Oc1nc(NC2CCN(c3cccc(C(N)=O)c3)CC2)ncc1Cl` gave an IC50 [9] of 19 nM, an IC50 [10] of 101 nM and an IC50 [11] of 19 nM.

With `COc1cc(C#N)cc(C)c1Oc1nc(NC2CCN(c3cccc(C(N)=O)c3)CC2)ncc1C` the IC50 [9] was 21 nM, the IC50 [10] was 66 nM and the IC50 [11] was 21 nM.

Work on `Cc1cc(C#N)cc(F)c1Oc1nc(NC2CCN(c3cccc(C(N)=O)c3)CC2)ncc1Br` yielded an IC50 [1] of 3.9 nM, an IC50 [9] of 6 nM and an IC50 [2] of 7.3 nM. It also gave an IC50 [10] of 29 nM, an IC50 [11] of 6 nM and an IC50 [3] of 28 nM. The IC50 [4] was 18.4 nM, the “Ratio IC50” value [5] was 2.5 and the IC50 [6] was 18.2 nM. It also gave an IC50 [7] of 5.5 nM and a microsomal CLint [8] of 82 µL/min/mg.

In the case of `Cc1cc(C#N)cc(C)c1Nc1ccnc(NC2CCN(c3cccc(C(N)=O)c3)CC2)n1`, the IC50 [1] is reported as 0.8 nM, the IC50 [9] is reported as 23 nM and the IC50 [2] is reported as 0.5 nM. For the same molecule, the IC50 [11] was 23 nM, the IC50 [3] was 15.2 nM and the IC50 [4] was greater than 100 nM. The “Ratio IC50” value [5] was 27.1, the IC50 [6] was 13.9 nM and the IC50 [7] was 3.7 nM. For the same molecule, the microsomal CLint [8] was 31 µL/min/mg.

For `Cc1cc(C#N)cc(C)c1Nc1nc(NC2CCN(c3cccc(C(N)=O)c3)CC2)ncc1Br`, the IC50 [1] was 0.9 nM, the IC50 [9] was 19 nM and the IC50 [2] was 1.5 nM. It also gave an IC50 [10] of 75 nM, an IC50 [11] of 19 nM and an IC50 [3] of 11.7 nM. The IC50 [4] was 10.8 nM, the “Ratio IC50” value [5] was 9.8 and the IC50 [6] was 14.2 nM. It also gave an IC50 [7] of 2.7 nM and a microsomal CLint [8] of 42 µL/min/mg.

With `Cc1cc(C#N)cc(C)c1Oc1nc(NC2CCN(c3cccc(S(N)(=O)=O)c3)CC2)ncc1Br` the IC50 [9] was 72 nM, the IC50 [10] was 105 nM and the IC50 [11] was 19 nM.

Work on `Cc1cc(C#N)cc(C)c1Oc1ccnc(NC2CCN(c3cccc(S(N)(=O)=O)c3)CC2)n1` yielded an IC50 [9] of 622 nM, an IC50 [10] of 194 nM and an IC50 [11] of 15 nM.

`Cc1cc(C#N)cc(Cl)c1Nc1nc(NC2CCN(c3cccc(C(N)=O)c3)CC2)ncc1Br` showed an IC50 [1] of 0.5 nM, an IC50 [9] of 15 nM and an IC50 [2] of 1.2 nM. For the same molecule, the IC50 [10] was 42 nM, the IC50 [11] was 15 nM and the IC50 [3] was 4.9 nM. The IC50 [4] was 2.9 nM, the “Ratio IC50” value [5] was 8.6 and the IC50 [6] was 9.9 nM. It also gave an IC50 [7] of less than 1.2 nM and a microsomal CLint [8] of 418 µL/min/mg.

`Cc1cc(C#N)cc(C)c1Oc1nc(NC2CCN(c3ccccc3C(N)=O)CC2)ncc1Br` gave an IC50 [9] of 967 nM and an IC50 [11] of 32 nM.

`Cc1cc(C#N)cc(C)c1Oc1nc(NC2CCN(c3cccc(C(N)=O)c3)CC2)ncc1Br` showed an IC50 [9] of 30 nM, an IC50 [10] of 70 nM and an IC50 [11] of 19 nM.

`Cc1cc(C#N)cc(C)c1Oc1ccnc(NC2CCN(c3cccc(C(N)=O)c3)CC2)n1` gave an IC50 [9] of 16 nM, an IC50 [10] of 34 nM and an IC50 [11] of 7 nM.

With `Cc1cc(C#N)cc(C)c1Oc1nc(NC2CCN(c3ccc(C(N)=O)cc3)CC2)ncc1Br` the IC50 [9] was greater than 1000 nM and the IC50 [11] was 24 nM.

Work on `Cc1cc(C#N)cc(C)c1Oc1nc(NC2CCN(c3cccc(S(C)(=O)=O)c3)CC2)ncc1Br` yielded an IC50 [9] of 100 nM, an IC50 [10] of 831 nM and an IC50 [11] of 42 nM.

In the case of `Cc1cc(C#N)cc(C)c1Oc1ccnc(NC2CCN(c3cccc(S(C)(=O)=O)c3)CC2)n1`, the IC50 [9] is reported as 238 nM and the IC50 [11] is reported as 11 nM.

For `O=C1Nc2ccc(Cl)cc2[C@@](C#CC2CC2)(C(F)(F)F)O1` [EFAVIRENZ], the IC50 [3] was 82.8 nM, the IC50 [4] was greater than 100 nM and the IC50 [7] was greater than 100 nM.

`Cc1cc(C#N)cc(C)c1Oc1nc(Nc2ccc(C#N)cc2)nc(N)c1Br` [ETRAVIRINE] gave an IC50 [3] of 9.2 nM and a microsomal CLint [8] of 29 µL/min/mg.
